# Assay results from US9061023B2, “Management and treatment of benign prostatic hyperplasia” (CSIR, priority 2007, dated 2015).
# Assays:
# [1] = target: steroid 5α-reductase enzyme (Rattus norvegicus (Rat), UniProt P24008); assay: In vitro steroid 5α-reductase assay (testosterone EIA); assay type: biochemical, Wistar rats; conditions: for IC50: reference compound data
# Experimental: In vitro biological assays of the extracts, compounds and mixtures of compounds were undertaken to determine their inhibition of the enzyme 5α-reductase. The efficacy of each isolated compound as well as the crude spray-dried extract was expressed as percentage inhibitory activity and these compounds were tested at different concentrations.
# The inhibitory effect of the crude extract, the isolated compounds and a mixture of the compounds on the steroid 5α-reductase was investigated and the results are given in Table 2.
# This work was performed at the MDS Pharma Services, Pharmacology Laboratories, Taiwan. The assay was an in vitro evaluation of the ability of an extract or a pure compound to inhibit the steroid 5α-reductase enzyme from metabolizing testosterone into dihydrotestosterone. This is an enzyme-immunoassay (EIA) for quantitative determination of testosterone in human serum or plasma. The significance of this type of inhibition is that it can lead to eradication of benign prostatic hyperplasia (BPH). Two distinct isozymes are found in mice, rats, monkeys and humans: type 1 and II. Each of these isozymes is differentially expressed in tissues and developmental stages. In human, type 1 steroid 5α-reductase is predominant in the sebaceous glands of most regions of skin, including scalp and liver and is responsible for approximately one third of circulating DHT. Inhibitors of steroid 5α-reductase may be of benefit in the treatment of androgenetic alopecia. This is a specific binding assay whereby the biochemical assay results were expressed as percentage inhibition. Finasteride was used as a reference compound in all experiments.
# The method employed was adapted from the scientific literature to maximize reliability and reproducibility^25. The steroid 5α-reductase enzyme was isolated from the liver of Wistar rats. The test compound was incubated with 20 μg/mL of steroid 5α-reductase preparation which contains 1 μM testosterone and 50 μM NADPH in DTT buffer, pH 6.5 for 30 minutes at 37° C. The reaction was stopped by addition of 1N HCl and neutralized by 1N NaOH and testosterone was quantified using a testosterone EIA Kit. Compounds were screened at 10 μM.
# [2] = system: 5α-reductase; conditions: men with smaller prostates, background; cited from earlier work
# [3] = system: steroid 5α-reductase enzyme; conditions: reported in literature (ref 18); cited from earlier work
# [4] = DPPH antioxidant screen (radical scavenging capacity)
# Experimental: The antioxidant assay was based on the DPPH assay. DPPH is a radical and when a compound with radical scavenging properties reacts with DPPH, the purple colour disappears and a yellow colour is observed. The decolourisation of a purple colour to a yellow colour is measured by a chromameter. The intensity of the yellow colour gives an indication of antioxidant activity. […] The antioxidant activity was expressed as percentage radical scavenging capacity (RSC). […] This evaluation was carried out at the CSIR, Biosciences, Bioprospecting Platform. The 1,1-diphenyl-2-picrylhydrazyl (DPPH) assay was used to investigate the scavenging properties of extracts and pure compounds. […] This is quantified by the decrease of absorbance at wavelength 515 nm in the spectrophotometer. DPPH(purple)+([…](yellow)+(A·)n^26 Since this was a colorimetric test, the appearance of the yellow colour was measured using a chromameter. The final appearance of a more intense yellow colour was used as a good indication of a radical scavenging ability of the extract or compound and this is directly proportional to its antioxidant activity. The antioxidant activity was directly related to the total amount of phenolics and flavonoids present in that particular extract. This method was sensitive enough to indicate and monitor the presence of phenolic-type compounds. […] Spots with good radical scavenging properties turned yellow and the intensity was measured by a chromameter^5. […] The activity of the compound or extract was measured against the reference compound, epigallocatechin gallate.
# Chain of steroid 5α-reductase enzyme (Rattus norvegicus (Rat), UniProt P24008) (P24008 whole entry): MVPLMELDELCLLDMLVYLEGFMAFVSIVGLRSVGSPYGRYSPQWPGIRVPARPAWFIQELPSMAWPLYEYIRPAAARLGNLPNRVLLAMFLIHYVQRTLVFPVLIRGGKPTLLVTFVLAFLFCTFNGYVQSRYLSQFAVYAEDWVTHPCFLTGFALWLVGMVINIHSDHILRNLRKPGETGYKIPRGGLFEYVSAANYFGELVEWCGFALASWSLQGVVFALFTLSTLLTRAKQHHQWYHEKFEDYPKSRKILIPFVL
structure (smiles),measurement,setting,value
"O=C(OC1Cc2c(O)cc(O)cc2OC1c1cc(O)cc(O)c1)c1cc(O)c(O)c(O)c1 (centres unmarked) [Compound (4), 3,4,5-Trihydroxybenzoic acid 2-(3,5-dihydroxy-phenyl)-5,7-dihydroxy-chroman-3-yl ester]",inhibition at 1 µM,[1]; test concentration 1 μM,-2%
CC(C)(C)NC(=O)[C@H]1CC[C@H]2[C@@H]3CC[C@H]4NC(=O)C=C[C@]4(C)[C@H]3CC[C@]12C [Finasteride],IC50,[1],0.025 µM
same,inhibition at 0.025 µM,[1]; test concentration 0.025 μM,50%
same,reduction in erection rate,[2],up to 8%
same,reduction in semen volume,[2],4%
same,reduction in sex drive,[2],6%
"COC(=O)c1cc(O)c(O)c(O)c1 [Compound (2), 3,4,5-Trihydroxybenzoic acid methyl ester]",effect against the steroid 5α-reductase enzyme in words,[3],ineffective
"O=C1c2c(O)cc(O)cc2O[C@H](c2ccc(O)c(O[C@@H]3O[C@H](CO)[C@@H](O)[C@H](O)[C@H]3O)c2)[C@H]1O [Compound (5), (2R,3R)-,2-[3-(β-D-glucopyranosyloxy)-4-hydroxy-phenyl]-2,3-dihydro-3,5,7-trihydroxy-,4H-1-benzo-pyran-4-one]",% inhibition,[1]; test concentration 1 μM,3%
same,% RSC,[4]; 6.25 ppm,10%
same,% RSC,[4]; 12.5 ppm,8%
same,% RSC,[4]; 25 ppm,10%
same,% RSC,[4]; 50 ppm,13%
same,% RSC,[4]; 100 ppm,21%
"CCCCC/C=C\C/C=C\C/C=C\CCCCC(=O)O [γ-Linolenic acid, reference compound]",IC50,[1],14 µM
"O=C(O)c1cc(O)c(O)c(O)c1 [Compound (1), 3,4,5-Trihydroxybenzoic acid]",effect against the steroid 5α-reductase enzyme in words,[3],ineffective
"O=C(O[C@@H]1Cc2c(O)cc(O)cc2O[C@@H]1c1cc(O)c(O)c(O)c1)c1cc(O)c(O)c(O)c1 [Epigallocatechin gallate, reference compound]",% RSC,[4]; 0.01 ppm,8%
same,% RSC,[4]; 0.1 ppm,8%
same,% RSC,[4]; 1 ppm,61%
same,% RSC,[4]; 10 ppm,95%
same,% RSC,[4]; 100 ppm,95%
"O=c1c(O)c(-c2ccc(O)c(OC3OC(CO)C(O)C(O)C3O)c2)oc2cc(O)cc(O)c12 (centres unmarked) [Compound (3), 3,5,7-Trihydroxy-2-[4-hydroxy-3-(3,4,5-trihydroxy-6-hydroxymethyltetrahydropyran-2-yloxy)-phenyl]-chromen-4-one]",inhibition at 1 µM,[1]; test concentration 1 μM,-9%
same,% RSC,[4]; 6.25 ppm,41%
same,% RSC,[4]; 12.5 ppm,77%
same,% RSC,[4]; 25 ppm,95%
same,% RSC,[4]; 50 ppm,95%
same,% RSC,[4]; 100 ppm,95%
